Key:
Type in all cases: biochemical
[1] = molecular target: T1, human type 1 17β-hydroxysteroid dehydrogenase (Homo sapiens, UniProt P14061); test: Enzymatic assay for type 1 17β-HSD; details: for IC50: Table 4′, read-out: Inhibition Type 1 17β-HSD Activity IC50; for inhibition at 3 µM / Inhibition Type 1 17B-HSD Activity [% Inh. at 3 · 10^−6 M]: 3 · 10^−6 M, value in square brackets; for inhibition at 3 µM: read-out: Inhibition Type 1 17B-HSD Activity [% Inh. at 3 · 10^−6 M]
T1 construct: expressed in transfected cells; host or cells: 293 cells, transient transfection; 100 000×g supernatant (cytosol)
T1 sequence (P14061 1-328): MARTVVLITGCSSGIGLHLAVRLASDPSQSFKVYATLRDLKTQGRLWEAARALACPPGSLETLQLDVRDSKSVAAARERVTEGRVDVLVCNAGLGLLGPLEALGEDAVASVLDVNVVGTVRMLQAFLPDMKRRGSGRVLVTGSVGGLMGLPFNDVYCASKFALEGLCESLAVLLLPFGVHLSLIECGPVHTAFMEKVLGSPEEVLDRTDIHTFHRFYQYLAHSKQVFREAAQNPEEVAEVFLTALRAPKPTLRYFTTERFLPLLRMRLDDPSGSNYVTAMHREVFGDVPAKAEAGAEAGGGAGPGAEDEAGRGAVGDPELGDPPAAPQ
Experimental: (§1) The manner in which IC50 was determined is described in “Efficacy of Preferred Inhibitors: VI. Enzymatic assay for types 1, 2, and 3 17β-HSD and types 1 and 3 3α-HSD”. […] numbers of IC50 are desirable. Blank means that a determination was not done. The % of inhibition at the concentration of 3.10^−6M determined in preliminary screening test is reported in square braquets.
(§2) Enzyme sources. 293 cells transiently transfected with expression vectors encoding types 1, 2 and 3 17β-HSD (Luu-The et al., J. Steroid Biochem. Molec. Biol., 55: 581-587, 1995), types 1 and 2 5α-reductase (Luu-The et al., J. Invest. Dermatol., 102: 221-226, 1994) and types 1 and 3 3α-HSD (Dufort et al. Biochem. Biophys. Res. Commun. 228: 474-479, 1996), using the calcium phosphate procedure (Kingston et al., In: Current Protocols in Molecular Biology. Edited by E. M. Ausbel, R. Brent, R. E. Kingston, D. D. Moore, J. G. Seidman, J. A. Smith, K. Struhl. John Wiley & Sons, New York, pp. 9.1.1-9.1.9, 1991; Luu-The et al., J. Invest. Dermatol., 102: 221-226, 1994). For assays using cell subfractions, cells were sonicated in 50 mM sodium phosphate buffer (pH 7.4), containing 20% glycerol and 1 mM EDTA and centrifuged at 10 000×g for 30 min before centrifugation for 100 000×g for 1 h to separate the mitochondrial and microsomal fractions, respectively. The cytosol fractions (100 000×g supernatant) was used to determine type 1 activity while the microsomal fraction (pellet at 100 000×g) was used for measurement of types 2 and 3 17β-HSD activities.
(§3) Incubation. The enzymatic reaction was carried out at 37° C. in 1 ml of 50 mM sodium phosphate buffer, pH 7.4, containing 20% glycerol, 1 mM EDTA, and 2 mM cofactors (NADPH or AND^+) for 1 h in the presence of 0.1 μM ^14C-labeled substrate: estrone and 4-dione for types 1 and […] 17β-HSD, respectively, testosterone for type 2 17β-HSD as well as types 1 and 2 5α-reductases, DHT for types 1 and 3 3α-HSD activities, and the indicated concentration of inhibitor.
(§4) Extraction of metabolites, migration on TLC and quantification were as described above for the assay of type 5 17β-HSD.

[2] = molecular target: T2, human type 3 17β-hydroxysteroid dehydrogenase (Homo sapiens, UniProt P37058); test: Enzymatic assay for type 3 17β-HSD; details: for IC50: Table 4′, read-out: Inhibition Type 3 17β-HSD Activity IC50
T2 construct: expressed in transfected cells; host or cells: 293 cells, transient transfection; microsomal fraction (100 000×g pellet)
T2 sequence (P37058 1-310): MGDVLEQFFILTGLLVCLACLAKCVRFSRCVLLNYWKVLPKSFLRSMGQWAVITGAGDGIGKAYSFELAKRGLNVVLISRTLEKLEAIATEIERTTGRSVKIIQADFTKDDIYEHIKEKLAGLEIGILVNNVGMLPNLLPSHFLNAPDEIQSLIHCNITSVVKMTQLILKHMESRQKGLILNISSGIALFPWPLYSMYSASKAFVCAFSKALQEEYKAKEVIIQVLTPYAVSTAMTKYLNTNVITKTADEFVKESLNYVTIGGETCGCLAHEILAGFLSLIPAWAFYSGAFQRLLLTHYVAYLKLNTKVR
Source text: Enzymatic assay for types 1, 2, and 3 17β-HSD and types 1 and 3 3α-HSD”. Lower numbers of IC50 are desirable. Blank means that a determination was not done. The % of inhibition at the concentration of 3.10^−6M determined in preliminary screening test is reported in square braquets.
as §2, §3, §4

[3] = molecular target: T3, human type 1 3α-hydroxysteroid dehydrogenase (Homo sapiens, UniProt P17516); test: Enzymatic assay for type 1 3α-HSD; details: Table 4′; for IC50: read-out: Inhibition Type 1 3α-HSD Activity IC50
T3 sequence (P17516 1-323): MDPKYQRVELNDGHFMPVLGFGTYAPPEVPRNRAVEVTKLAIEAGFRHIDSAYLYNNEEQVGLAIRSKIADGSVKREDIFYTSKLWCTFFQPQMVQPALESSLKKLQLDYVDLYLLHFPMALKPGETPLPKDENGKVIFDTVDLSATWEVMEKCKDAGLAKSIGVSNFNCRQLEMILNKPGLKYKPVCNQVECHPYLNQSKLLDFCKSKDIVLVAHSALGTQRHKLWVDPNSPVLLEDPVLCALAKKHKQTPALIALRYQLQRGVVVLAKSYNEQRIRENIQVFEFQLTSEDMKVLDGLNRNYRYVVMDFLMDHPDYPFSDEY
Experimental: The manner in which IC50 was determined is described in “Efficacy of Preferred Inhibitors: VI. Enzymatic assay for types 1, 2, and 3 17β-HSD and types 1 and 3 3α-HSD”. […] numbers of IC50 are desirable. Blank means that a determination was not done. […]
as §2, §3, §4

[4] = molecular target: T4, human type 3 3α-hydroxysteroid dehydrogenase (Homo sapiens, UniProt P52895); test: Enzymatic assay for type 3 3α-HSD; details: Table 4′; read-out: Inhibition Type 3 3α-HSD Activity IC50
T4 construct: expressed in transfected cells; host or cells: 293 cells, transient transfection
T4 sequence (P52895 1-323): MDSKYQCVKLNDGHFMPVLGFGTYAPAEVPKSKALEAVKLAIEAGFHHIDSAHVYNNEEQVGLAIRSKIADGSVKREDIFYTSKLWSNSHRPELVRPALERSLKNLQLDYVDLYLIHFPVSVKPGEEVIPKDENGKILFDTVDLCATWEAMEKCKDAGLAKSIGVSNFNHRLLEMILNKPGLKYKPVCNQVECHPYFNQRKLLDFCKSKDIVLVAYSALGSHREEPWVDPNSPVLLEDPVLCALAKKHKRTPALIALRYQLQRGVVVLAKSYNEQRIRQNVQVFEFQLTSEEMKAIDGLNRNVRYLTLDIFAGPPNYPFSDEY
Experimental: as §1, §2, §3, §4

Structure (SMILES)	IC50 [1]	IC50 [2]	IC50 [3]	IC50 [4]	inhibition at 3 µM [1]	other results
COCCOc1cc2c(cc1C#N)C1CC[C@@]3(C)C(CC[C@@]34CCC(C)(C)C(=O)O4)C1CC2 (stereo partly shown) [EM-1396]	> 10 µM	> 10 µM	> 10 µM	> 10 µM		
CC1(C)CC[C@@]2(CCC3C4CCc5cc(C(N)=O)ccc5C4CCC32C)OC1=O (stereo partly shown) [EM-1404]	> 10 µM	> 10 µM	> 10 µM	> 10 µM		
CCCC(=O)O[C@]1(C)C(=O)CCC2C3C=C(C)C4=CC(=O)CC[C@]4(C)C3CC[C@@]21C (stereo partly shown) [EM-1078]					15%	
COCCOc1cc2c(cc1C(N)=O)C1CC[C@@]3(C)C(CC[C@@]34CCC(C)(C)C(=O)O4)C1CC2 (stereo partly drawn) [EM-1424, 2-Carbamoyl-3-(2″-methoxyethyloxy)-1,3,5(10)-estratrien 17(R)-spiro-2′-(5′,5′-dimethyl-6′-oxo)tetrahydropyran]	> 10 µM	> 10 µM	> 10 µM	> 10 µM		
CC1(C)CC[C@@]2(CCC3C4CCc5cc(C(=O)O)ccc5C4CC[C@@]32C)OC1=O (stereo partly drawn) [EM-1401, 3-Carboxy-1,3,5(10)-estratrien-17(R)-spiro-2′-(5′,5′-dimethyl-6′-oxo)tetrahydropyran]	> 10 µM	> 10 µM		> 10 µM		Inhibition Type 1 3α-HSD Activity [% Inh. at 3 · 10^8M] ([3]; bracketed value, 3 · 10^−6 M): [76] %
CC1=C[C@@H]2[C@H](CC[C@]3(C)C(=O)C4(CCCCC4)C[C@@H]23)[C@@]2(C)CCC(=O)C=C12 [EM-925]						Inhibition Type 1 17B-HSD Activity [% Inh. at 3 · 10^−6 M] [1]: [13] %
CCC[C@@H]1CC2C3C=CC4=CC(=O)CC[C@]4(C)C3CC[C@]2(C)C1=O (stereo partly shown) [EM-1097]					64%	inhibition at 3 µM ([2]; 3 · 10^−6 M, value in square brackets, read-out: Inhibition Type 3 17B-HSD Activity [% Inh. at 3 · 10^−6 M]): 82%
CC1(C)CCC2(CCC3C4CCc5cc(OS(C)(=O)=O)ccc5C4CCC32C)OC1=O (stereo not shown) [EM-1365-CS]	> 10 µM	> 10 µM	> 10 µM	> 10 µM		
COc1ccc2c(c1)C(=O)CC1C2CC[C@@]2(C)C1CC[C@@]21CCC(C)(C)C(=O)O1 (stereo partly shown) [EM-1394]	> 10 µM	> 10 µM	> 10 µM	> 10 µM		
CC12C=CC(=O)C=C1C=CC1C2CCC2(C)C(=O)C3(CCCCC3)CC12 (stereo not shown) [CS-204]					23%	
CC(C)C[C@@H]1CC2C3C=CC4=CC(=O)CC[C@]4(C)C3CC[C@]2(C)C1=O (stereo partly shown) [EM-1273-CS]					31%	
CCC[C@]1(F)CC2C3C=CC4=CC(=O)CC[C@]4(C)C3CC[C@]2(C)C1=O (stereo partly shown) [EM-1183]					34%	
CC1(C)CC[C@@]2(CCC3C4CCc5cc(F)ccc5C4CC[C@@]32C)OC1=O (stereo partly shown) [EM-1157-CS]	> 10 µM	> 10 µM	> 10 µM	> 10 µM		
COCCOc1cc2c(cc1C(=O)OC)C1CC[C@@]3(C)C(CC[C@@]34CCC(C)(C)C(=O)O4)C1CC2 (stereo partly drawn) [EM-1402-CS, 2-Carbomethoxy-3-(2″-methoxyethyloxy)-1,3,5(10)-estratrien 17(R)-spiro-2′-(5′,5′-dimethyl-6′-oxo)tetrahydropyran]	> 10 µM	> 10 µM	> 10 µM	> 10 µM		
C[C@]12CCC(=O)C=C1C=C[C@@H]1[C@@H]2CC[C@]2(C)C(=O)C3(CC4CC4C3)C[C@@H]12 (stereo partly shown) [EM-1299, 4,6-Androstadien-3,17-dione-16-spirobicyclo[3′.1′.0′]-hexane]						Inhibition Type 1 17B-HSD Activity [% Inh. at 3 · 10^−6 M] [1]: [49] %
